How the values were obtained:
Assay in all cases: HLA class I induction, flow-cytometry
Assay type in all cases: cell-based, human
CNCM I-2547 = settings: two days with IFN-α 100 U/ml, absence 135
Procedure: (§1) Melanoma cell lines were screened for their sensitivity to proliferation inhibition and HLA class I induction. The study was done of six cell lines (CNCM I-2544, CNCM I-2545, CNCM I-2546, CNCM I-2547, CNCM I-2548 and CNCM I-2549).
(§2) All these cell lines were cultured in RPMI medium supplemented with 10% FCS, glutamine (2 mM), sodium pyruvate (1 mM), non-essential amino acids and HEPES buffer (10 mM) (all from GIBCO Life Sciences, Paisley, UK). When confluent, the cells were passaged by trypsinization.
(§3) A number of established melanoma cell lines were assayed for their sensitivity to IFN-α by testing the capacity of IFN-α to inhibit their proliferation and to increase their surface expression of HLA class I determinants.

CNCM I-2549 = settings: two days with IFN-α 100 U/ml, absence 203
Procedure: as §1, §2, §3

CNCM I-2545 = settings: two days with IFN-α 100 U/ml, absence 196
Procedure: as §1, §2, §3

CNCM I-2548 = settings: two days with IFN-α 100 U/ml, absence 380
Procedure: as §1, §2, §3

CNCM I-2544 = settings: two days with IFN-α 100 U/ml, absence 305
Procedure: as §1, §2, §3

CNCM I-2546 = settings: two days with IFN-α 100 U/ml, absence 257
Procedure: as §1, §2, §3

## IFN-α
CNCM I-2547
  HLA class I induction, mean fluorescence intensity: (980 vs. 135)
CNCM I-2549
  HLA class I induction, mean fluorescence intensity: (175 vs. 203)
CNCM I-2545
  HLA class I induction, mean fluorescence intensity: (184 vs. 196)
CNCM I-2548
  HLA class I induction, mean fluorescence intensity: (559 vs. 380)
CNCM I-2544
  HLA class I induction, mean fluorescence intensity: (442 vs. 305)
CNCM I-2546
  HLA class I induction, mean fluorescence intensity: (521 vs. 257)
